Results reported in PMC8771711, “Synthesis of Lasalocid-Based Bioconjugates and Evaluation of Their Anticancer Activity” (ACS Omega, 2022).

Assays:
[1] = system: ROS production in PC3, SW480, SW620 cells; test: ROS detection, DCFH-DA and DHR-123 assay, cancer cell lines; assay type: cell-based, human; settings: IC50 concentration; DCF and rhodamine fluorescence intensity
Method: (§1) ROS generation was assessed by the spectrofluorometric method using the 2′,7′-dichlorodihydrofluorescein diacetate (DCFH-DA) or dihydrorhodamine 123 (DHR-123). The method is based on the ROS-dependent oxidation of the compounds to fluorescent dichlorofluorescein (DCF) or rhodamine-123, respectively.[61] PC3, SW480, SW620, and HaCaT were seeded on to 96-well plates (5 × 10^4 cells per well) and allowed to adhere for 24 h. Then, cells were rinsed with PBS and incubated with DCFH-DA (5 μM) or DHR-123 (1 μM) for 30 min at 37 °C in the dark. […] A sample with H2O2 (1.5 mM) was a positive control, and a sample without any reagent was a negative control. Maximum excitation and emission spectra for DCF were 492 and 527 nm, and those for rhodamine-123 were 500 and 536 nm, respectively. The generation of H2O2 was measured by Microplate Spectrofluorometer BioTek Synergy (BioTek Instruments, USA) and expressed as fluorescence intensity (FI). Values from three experiments performed in triplicate were analyzed.

PC3 cells = test: Annexin V-FITC/PI binding assay (flow cytometry) in PC3; assay type: cell-based, human; settings: IC50 concentration, 72 h
Method: (§2) The SW480, SW620, PC3, and HaCaT cells were cultured and harvested under the conditions mentioned in the Section 4.5 and seeded in 12-well plates (1 × 10^5 cells per well). […] The apoptotic effect was performed using the Annexin V-FITC/propidium iodide (PI) apoptosis assay kit (Becton Dickinson, Pharmingen), according to the manufacturer’s instructions, and analyzed by flow cytometry (Becton Dickinson). The cells which were Annexin V-FITC-positive and PI-negative were identified as early apoptotic and both Annexin V-FITC- and PI-positive as late apoptotic or necrotic. The experiment was repeated three times.

[2] = system: HaCaT, human immortalized keratinocyte cell line; test: MTT assay, cytotoxicity in HaCaT; assay type: cell-based; settings: Homo sapiens, HaCaT, 72 h, mean ± SD, nontumor cells
Method: (§3) The human cell lines SW480 (primary colon cancer), SW620 (lymph node metastatic colon cancer from the same patient as primary cancer cells), PC3 (metastatic prostate cancer), and HaCaT (immortalized keratinocytes) were obtained from the American Type Culture Collection (ATCC, Rockville, USA). The SW480 and SW620 cells were grown in MEM (ThermoSci, USA), PC3 in RPMI 1640, and HaCaT in DMEM High Glucose (Biowest SAS, France) supplemented with 10% foetal bovine serum (FBS), HEPES (20 mM), and antibiotics (100 U mL^–1 of penicillin and 100 μg mL^–1 of streptomycin). The cells were incubated in a humidified incubator at 37 °C/5% CO2, until 80–90% confluence was reached.
(§4) The cell viability was assessed by using of MTT salt [3-(4,5-dimethylthiazol-2-yl)-2,5-diphenyltetrazolium bromide] converted by mitochondrial dehydrogenase, occurring in living cells. The cells were seeded in 96-well plates at a density of 1 × 10^4 cells per well and allowed to adhere for 24 h at 37 °C in a CO2 humidified incubator. Then, the medium was removed and a fresh medium with various concentrations of tested compounds (from 10 to 120 μM) was added. The untreated cells were used as the control.
(§5) After 72 h incubation, the medium was replaced with 200 μL per well of free serum medium containing 0.5 mg mL^–1 MTT and incubated for 4 h at 37 °C in a CO2 humidified incubator. Subsequently, the medium was removed and dimethyl sulfoxide with isopropanol (1:1) was added to dissolve the formazan crystals. The optical density was measured using a UVM 340 reader (ASYS Hitech GmbH, Austria) at a wavelength of 570 nm. The experiments were repeated three times. The cell viability was calculated as the percent of MTT reduced in treated cells versus control cells (untreated cells). The number of viable cells cultured without tested compounds was assumed as 100%. The decreased relative MTT level indicates decreased cell viability. The IC50 values were estimated using CompuSyn version 1.0.

[3] = system: SW480, human primary colon cancer cell line; test: MTT assay, cytotoxicity in SW480; assay type: cell-based; settings: for IC50: Homo sapiens, SW480, MTT, 72 h, mean ± SD; for SW480 SI (selectivity index): SI = IC50 HaCaT / IC50 SW480
Method: as §3, §4, §5

IL-6 in SW620 cells = test: Interleukin-6 assay (ELISA) in SW620; assay type: cell-based, human; settings: IC50 concentration, 72 h, ELISA of culture supernatant
Method: (§6) The level of interleukin-6 (IL-6) in SW480, SW620, and PC3 cell lines was measured by commercial human IL-6 ELISA kits Diaclon SAS (Besancon Cedex, France). […] The untreated cells were used as the control. The IL-6 level in a cell culture supernatant was measured using an enzyme-linked immunosorbent assay, in accordance with the manufacturer’s instruction. The experiment was repeated three times.

SW480 cells = test: Annexin V-FITC/PI binding assay (flow cytometry) in SW480; assay type: cell-based, human; settings: IC50 concentration, 72 h
Method: as §2

IL-6 in SW480 cells = test: Interleukin-6 assay (ELISA) in SW480; assay type: cell-based, human; settings: IC50 concentration, 72 h, ELISA of culture supernatant
Method: as §6

[4] = system: ROS production in HaCaT cells; test: ROS detection, DCFH-DA and DHR-123 assay, HaCaT; assay type: cell-based, human; settings: IC50 concentration; for ROS level in HaCaT cells (in words): DCF and rhodamine fluorescence intensity; for time of treatment at which the amount of ROS in HaCaT cells was highest: measured after 1, 4, 12, 24 h
Method: as §1

HaCaT cells = test: Annexin V-FITC/PI binding assay (flow cytometry) in HaCaT; assay type: cell-based, human; settings: IC50 concentration, 72 h; span stated for compounds 12 and 13 together
Method: as §2

SW620 cells = test: Annexin V-FITC/PI binding assay (flow cytometry) in SW620; assay type: cell-based, human; settings: IC50 concentration, 72 h
Method: as §2

[5] = system: PC3, human prostate cancer cell line; test: MTT assay, cytotoxicity in PC3; assay type: cell-based; settings: for IC50: Homo sapiens, MTT, 72 h, mean ± SD; for PC3 SI (selectivity index): SI = IC50 HaCaT / IC50 PC3
Method: as §3, §4, §5

[6] = system: SW620, human metastatic colon cancer cell line; test: MTT assay, cytotoxicity in SW620; assay type: cell-based; settings: for IC50: Homo sapiens, SW-620, MTT, 72 h, mean ± SD; for SW620 SI (selectivity index): SI = IC50 HaCaT / IC50 SW620
Method: as §3, §4, §5

[7] = system: three cancer cell lines (SW480, SW620, PC3); test: MTT assay, span over the three cancer cell lines; assay type: cell-based, human; settings: for IC50: Homo sapiens, MTT, 72 h; for SI, span over three cancer cell lines: SI = IC50 HaCaT / IC50 cancer cell line
Method: as §3, §4, §5

IL-6 in PC3 cells = test: Interleukin-6 assay (ELISA) in PC3; assay type: cell-based, human; settings: IC50 concentration, 72 h, ELISA of culture supernatant, p ≤ 0.001
Method: as §6

| Structure (SMILES) | percentage of late apoptotic PC3 cells (PC3 cells) [%] | percentage of necrotic PC3 cells (PC3 cells) [%] | IC50 [2] [µM] | IC50 [3] [µM] | SW480 SI (selectivity index) [3] | percentage of necrotic SW480 cells (SW480 cells) [%] | IC50 [5] [µM] | PC3 SI (selectivity index) [5] | IC50 [6] [µM] | SW620 SI (selectivity index) [6] | further results |
| --- | --- | --- | --- | --- | --- | --- | --- | --- | --- | --- | --- |
| CC[C@@H](C(=O)[C@@H](C)[C@@H](O)[C@H](C)CCc1ccc(C)c(O)c1C(=O)OC[C@H]1O[C@@H](n2ccc(N)nc2=O)C(F)(F)[C@@H]1O)[C@H]1O[C@](CC)([C@H]2CC[C@](O)(CC)[C@H](C)O2)C[C@@H]1C [Compound 12, LAS–Gemcitabine Conjugate] | 39.92 | 40.31 | 14 ± 0.22 | 12 ± 0.86 | 1.2 | 42.85 | 1.6 ± 1.2 | 8.8 | 3.6 ± 1.1 | 3.9 | ROS level in cancer cell lines (in words) [1]: significantly higher level of ROS; decrease of IL-6 concentration in SW620 cells compared to the control (IL-6 in SW620 cells): ~1.3 time; decrease of IL-6 concentration in SW480 cells compared to the control (IL-6 in SW480 cells): ~1.0 time; ROS level in HaCaT cells (in words) [4]: slightly elevated level of ROS; time of treatment at which the amount of ROS in HaCaT cells was highest [4]: 4 h; late apoptosis in HaCaT cells (HaCaT cells): 57.26 to 72.01%; early apoptosis in SW620 cells (SW620 cells): 14.53%; late apoptosis in SW620 cells (SW620 cells): 14.79% |
| CC[C@@H](C(=O)[C@@H](C)[C@@H](O)[C@H](C)CCc1ccc(C)c(O)c1C(=O)OCCCCn1cc(F)c(=O)[nH]c1=O)[C@H]1O[C@](CC)([C@H]2CC[C@](O)(CC)[C@H](C)O2)C[C@@H]1C [Compound 8, LAS–5-Fluorouracil Conjugate] | 33.16 | 34.88 | 33 ± 3.4 | 67 ± 1.2 | 0.5 |  | 3.6 ± 0.08 | 9.2 | 14 ± 1 | 2.4 |  |
| Nc1ccn([C@@H]2O[C@H](CO)[C@@H](O)C2(F)F)c(=O)n1 [GEM, gemcitabine, reference compound] |  |  | 1.5 ± 0.05 | 1.2 ± 0.05 | 1.3 |  | 0.14 ± 0.02 | 11 | 3.4 ± 0.65 | 0.4 | IC50 [7]: 0.14 to 3.4 µM; SI, span over three cancer cell lines [7]: 0.4–11 |
| CC[C@@H](C(=O)[C@@H](C)[C@@H](O)[C@H](C)CCc1ccc(C)c(O)c1C(=O)O)[C@H]1O[C@](CC)([C@H]2CC[C@](O)(CC)[C@H](C)O2)C[C@@H]1C [LAS, lasalocid] |  |  | 16 ± 1.9 | 7.2 ± 0.79 | 2.2 |  | 1.4 ± 0.05 | 11 | 6.1 ± 0.28 | 2.6 | IC50 [7]: 1.4 to 7.2 µM; SI, span over three cancer cell lines [7]: 2.2–11 |
| CC[C@@H](C(=O)[C@@H](C)[C@@H](O)[C@H](C)CCc1ccc(C)c(O)c1C(=O)OCc1cc(=O)c(O)co1)[C@H]1O[C@](CC)([C@H]2CC[C@](O)(CC)[C@H](C)O2)C[C@@H]1C [Compound 7, LAS–Kojic Acid Conjugate] | 28.24 | 26.00 | 6.3 ± 0.1 | 7.8 ± 0.09 | 0.8 | 22.39 | 3.8 ± 0.07 | 1.7 | 9.9 ± 0.08 | 0.6 | inhibition of IL-6 release in PC3 cells, fold more effectively compared to control (IL-6 in PC3 cells): ~1.2 fold |
| CC[C@@H](C(=O)[C@@H](C)[C@@H](O)[C@H](C)CCc1ccc(C)c(O)c1C(=O)OCCC[P+](c1ccccc1)(c1ccccc1)c1ccccc1)[C@H]1O[C@](CC)([C@H]2CC[C@](O)(CC)[C@H](C)O2)C[C@@H]1C [Compound 13, LAS–TPP Conjugate] |  | 56.81 | 3.2 ± 0.12 | 1.4 ± 1.5 | 2.3 | 24.82 | 1.8 ± 0.09 | 1.8 | 2.3 ± 2.2 | 1.4 | ROS level in cancer cell lines (in words) [1]: significantly higher level of ROS; percentage of late apoptotic SW480 cells (SW480 cells): 20.15%; ROS level in HaCaT cells (in words) [4]: significantly higher level of ROS; time of treatment at which the amount of ROS in HaCaT cells was highest [4]: 12 h; late apoptosis in HaCaT cells (HaCaT cells): 57.26 to 72.01% |
| CC[C@@H](C(=O)[C@@H](C)[C@@H](O)[C@H](C)CCc1ccc(C)c(O)c1C(=O)OCCCCCCn1cc(F)c(=O)[nH]c1=O)[C@H]1O[C@](CC)([C@H]2CC[C@](O)(CC)[C@H](C)O2)C[C@@H]1C [Compound 9, LAS–5-Fluorouracil Conjugate] |  |  | 44 ± 1.8 | 66 ± 2.5 | 0.7 |  | 36 ± 0.79 | 1.2 | 55 ± 1.5 | 0.8 |  |
